Experimental data published in patent US20180030080A1, “Phosphoramidate nucleoside prodrug for treating viral diseases and cancer, processes for their preparation and their use” (ASAVI, LLC, priority 2016, published 2018).
Read-outs that look alike come from different tables or passages of the source.

Columns and labels:
HBV = assay: Anti-HBV activity in the AD-38 cell line using real-time quantitative PCR; format: cell-based; conditions: against HBV; for EC50: AD-38 cells, 4 days, read-out: EC50; for inhibition, %: concentration not given
Protocol: Anti-HBV activity of prodrugs of general formula 1 determination in the AD-38 cell line using a real-time quanitative PCR. a) Cell cultures. HepG2 AD38 cell line, harboring an integrated over-the-length HBV genomic DNA (Lander S, et. al, Antimicrobal Agents and Chemotherapy, 1997, pg. 1715-1720) were provided by Dr. C. Seeger, Fox Chase Cancer Center, Philadelphia, Pa.). Cells were grown in complete media (DMEM/F12 with 2 mM L-Glutamine (Thermo Scientific, Cat #11320033), 10% Fetal Bovine Serum (ThermoFisher Scientific, Cat#), 1% Antibiotic-antimitotic solution (ThermoFisher Scientific, Cat#15240096), and 0.3 μg/ml tetracyclin (Sigma, Cat # T7660-5G). Cells were plated onto Corning Biocoat 96-well plates (Corning, Cat #356407) in 225 ul of complete media (without teracyclin), 20000 cells/well. The prodrugs of general formula 1 were dissolved first in DMSO (Sigma cat. D2650), then in DMEM/F12 and 9 serial 3× dilutions were prepared and added to cells in 22.5 μl. The final prodrugs concentrations ranged from 10 μM to 1 nM. Cells grown in the presence of tetracyclin were used as a positive control, as HBV replication in this cell line is turned off by thetracyclin. Cell plates were incubated for 4 days at 37 C, 5% CO2. b) HBV DNA isolation. After 4 days, viral DNA was isolated from culture supernatants using PureLink® Pro 96 Genomic DNA Purification Kit (ThermoFisher Scientific, Cat # K183104A), according to manufacturer's recommendations. Eluted DNA samples were stored at −20 C. c) Quantitative real-time PCR (qPCR). PCR was performed on the CFX96™ Real-Time System (Bio-Rad, Hercules, Calif.) using AmpliTaq Gold® DNA Polymerase (Applied Biosystems®).
Ct values (cycle threshold) were obtained for each prodrug sample and normalized to untreated cells, according to formula E=(1/(1+100%))̂(Ct[studied prodrug sample]−Ct[K-]), where E is a normalized expression of studied gene, Ct[K-] and Ct[studied prodrug sample] are Ct values of untreated cells and studied prodrug sample. Inhibition curves were obtained and EC50 values were calculated using the Graph Prizm software (Table 3).

HepG2 AD38 cell line = assay: Cytotoxicity (viability, CC50) reported with the anti-HBV test; format: cell-based; conditions: for viability, %: concentration not given
HCV replicon gT3a = assay: HCV replicon assay, genotype gT3a; format: cell-based; conditions: Hepatitis C virus, mean
Protocol: (§1) Anti-HCV activity (EC50) and cytotoxicity (CC50) of prodrugs of general formula 1. The HCV replicon assay was used to determine the antiviral activity of chemotherapeutic agents of general formula 1 (test compounds). Sovaldi (PSI-7977) was used as the reference drug. The test cell line used in the HCV Replicon Assay was the human hepatoma cell line Huh7 incorporating the HCV replicons synthesized by an outside vendor. 96-well plates were seeded with cells at a density of 7.5×10^3 cells per well in 50 μl of assay media. The compound stock solution was made up freshly in an assay medium (DMEM 1×, Cellgro; cat. #10-013-CV) as a 2× stock. A total of 11 serial 3-fold dilutions of test compounds were prepared from the 2× stock in the assay media ranging from 20 nM-0.2 pM final concentrations. At least 4 hours after seeding the cells, compound treatment was initiated by adding 50 μl of compound dilution to the plates. […] The final DMSO concentration was 0.5%. Cells and inhibitors were incubated for 3 days at 37° C./5% CO2. The media was removed from the plates by gentle tapping. The cells were fixed with 100 μl 1:1 acetone:methanol for 1 minute, washed three times with PBS buffer, and then blocked with 150 μl/well 10% Fetal Bovine Serum (FBS) in PBS for 1 hour at room temperature. The cells were then washed three times with PBS buffer and incubated with 100 μl/well anti-hepatitis C core mAb (Affinity BioReagents; cat. # MA1-080, 1 mg/ml stock diluted 1:4,000 in 10% FBS-PBS) for 2 hours at 37° C. Then, the cells were washed three times with PBS and incubated with 100 μl/well HRP-Goat Anti-Mouse antibody (diluted 1:3.500 in 10% FBS-PBS) for 1 hour at 37° C. […] The reaction was stopped with 2N H2SO4 (100 μl/well), and the absorbance was measured at A490 X on a Victor^3 V 1420 multilabel counter (Perkin Elmer). The EC50 values were calculated for test compounds from the resulting best-fit equations determined by Xlfit software (Table 1).

HCV replicon gT4a = assay: HCV replicon assay, genotype gT4a; format: cell-based; conditions: Hepatitis C virus, mean
Protocol: as §1

HCV replicon gT1a = assay: HCV replicon assay, genotype gT1a; format: cell-based; conditions: Hepatitis C virus, mean
Protocol: as §1

HCV replicon gT5a = assay: HCV replicon assay, genotype gT5a; format: cell-based; conditions: Hepatitis C virus, mean
Protocol: as §1

HCV replicon gT2a = assay: HCV replicon assay, genotype gT2a; format: cell-based; conditions: Hepatitis C virus, mean
Protocol: Anti-HCV activity (EC50) and cytotoxicity (CC50) of prodrugs of general formula 1. The HCV replicon assay was used to determine the antiviral activity of chemotherapeutic agents of general formula 1 (test compounds). Sovaldi (PSI-7977) was used as the reference drug. The test cell line used in the HCV Replicon Assay was the human hepatoma cell line Huh7 incorporating the HCV replicons synthesized by an outside vendor. 96-well plates were seeded with cells at a density of 7.5×10^3 cells per well in 50 μl of assay media. The compound stock solution was made up freshly in an assay medium (DMEM 1×, Cellgro; cat. #10-013-CV) as a 2× stock. A total of 11 serial 3-fold dilutions of test compounds were prepared from the 2× stock in the assay media ranging from 20 nM-0.2 pM final concentrations. At least 4 hours after seeding the cells, compound treatment was initiated by adding 50 μl of compound dilution to the plates. The final concentrations of compound therefore ranged from 10 nM to 0.1 pM when diluted 1:1 in culture media. The final DMSO concentration was 0.5%. Cells and inhibitors were incubated for 3 days at 37° C./5% CO2. The media was removed from the plates by gentle tapping. The cells were fixed with 100 μl 1:1 acetone:methanol for 1 minute, washed three times with PBS buffer, and then blocked with 150 μl/well 10% Fetal Bovine Serum (FBS) in PBS for 1 hour at room temperature. The cells were then washed three times with PBS buffer and incubated with 100 μl/well anti-hepatitis C core mAb (Affinity BioReagents; cat. # MA1-080, 1 mg/ml stock diluted 1:4,000 in 10% FBS-PBS) for 2 hours at 37° C. Then, the cells were washed three times with PBS and incubated with 100 μl/well HRP-Goat Anti-Mouse antibody (diluted 1:3.500 in 10% FBS-PBS) for 1 hour at 37° C. […] The reaction was stopped with 2N H2SO4 (100 μl/well), and the absorbance was measured at A490 X on a Victor^3 V 1420 multilabel counter (Perkin Elmer). The EC50 values were calculated for test compounds from the resulting best-fit equations determined by Xlfit software (Table 1).

HCV replicon gT1b = assay: HCV replicon assay, genotype gT1b; format: cell-based; conditions: Hepatitis C virus
Protocol: Anti-HCV activity (EC50) and cytotoxicity (CC50) of prodrugs of general formula 1. The HCV replicon assay was used to determine the antiviral activity of chemotherapeutic agents of general formula 1 (test compounds). Sovaldi (PSI-7977) was used as the reference drug. The test cell line used in the HCV Replicon Assay was the human hepatoma cell line Huh7 incorporating the HCV replicons synthesized by an outside vendor. 96-well plates were seeded with cells at a density of 7.5×10^3 cells per well in 50 μl of assay media. The compound stock solution was made up freshly in an assay medium (DMEM 1×, Cellgro; cat. #10-013-CV) as a 2× stock. A total of 11 serial 3-fold dilutions of test compounds were prepared from the 2× stock in the assay media ranging from 20 nM-0.2 pM final concentrations. At least 4 hours after seeding the cells, compound treatment was initiated by adding 50 μl of compound dilution to the plates. […] The final DMSO concentration was 0.5%. Cells and inhibitors were incubated for 3 days at 37° C./5% CO2. The media was removed from the plates by gentle tapping. The cells were fixed with 100 μl 1:1 acetone:methanol for 1 minute, washed three times with PBS buffer, and then blocked with 150 μl/well 10% Fetal Bovine Serum (FBS) in PBS for 1 hour at room temperature. The cells were then washed three times with PBS buffer and incubated with 100 μl/well anti-hepatitis C core mAb (Affinity BioReagents; cat. # MA1-080, 1 mg/ml stock diluted 1:4,000 in 10% FBS-PBS) for 2 hours at 37° C. Then, the cells were washed three times with PBS and incubated with 100 μl/well HRP-Goat Anti-Mouse antibody (diluted 1:3.500 in 10% FBS-PBS) for 1 hour at 37° C. The cells were then washed three times with PBS and developed with an OPD solution, 100 μl/well (1 OPD tablet+12 ml citrate/phosphate buffer+5 μl 30% H2O2 per plate), for 30 minutes in the dark at room temperature. The reaction was stopped with 2N H2SO4 (100 μl/well), and the absorbance was measured at A490 X on a Victor^3 V 1420 multilabel counter (Perkin Elmer). The EC50 values were calculated for test compounds from the resulting best-fit equations determined by Xlfit software (Table 1).

HCV replicon = conditions: cited from earlier work

| Compound | EC50 (HBV) [nM] | inhibition, % (HBV) [%] | CC50 (HepG2 AD38 cell line) [nM] | viability, % (HepG2 AD38 cell line) [%] | other results |
| --- | --- | --- | --- | --- | --- |
| C=CCOC(=O)[C@H](C)N[P@](=O)(OC[C@@H]1O[C@H](n2cc(F)c(=O)[nH]c2=O)CS1)Oc1ccccc1 [1.2(97), allyl (S)-2-{(S)-[(2R,5S)-5-(5-fluoro-2,4-dioxo-3,4-dihydro-2H-pyrimidin-1-yl)-[1,3]oxathiolan-2-ylmethoxy]-phenoxy-phosphorylamino}-propanoate] | 370 ± 50 | 99 | > 30000 | 91 | – |
| C=CCOC(=O)[C@H](C)NP(=O)(OC[C@H]1O[C@@H](n2ccc(=O)[nH]c2=O)[C@](C)(F)[C@@H]1O)Oc1ccccc1 (stereo partly drawn) [1.2(9), allyl (S)-2-{[(2R,3R,4R,5R)-5-(2,4-dioxo-3,4-dihydro-2H-pyrimidin-1-yl)-4-fluoro-3-hydroxy-4-methyl-tetrahydro-furan-2-ylmethoxy]-phenoxy-phosphorylamino}-propanoate] | – | – | – | – | IC50 (HCV replicon gT3a): 51 nM; IC50 (HCV replicon gT4a): 100 nM; IC50 (HCV replicon gT1a): 54 nM; IC50 (HCV replicon gT5a): 146 nM; IC50 (HCV replicon gT2a): 23 nM; IC50 (HCV replicon gT1b; GT1B, read-out: IC50 HCV gT1b 10% FBS (mean)): 29 nM; IC50 (HCV replicon gT1b; gT1b, 40% NHS, mean, read-out: IC50 HCV gT1b 40% NHS (mean)): 34 nM |
| COCCOC(=O)[C@H](C)N[P@](=O)(OC[C@@H]1O[C@H](n2ccc(=O)[nH]c2=O)CS1)Oc1ccccc1 [1.2(96), 2-methoxy-ethyl (S)-2-{(S)-[(2R,5S)-5-(2,4-dioxo-3,4-dihydro-2H-pyrimidin-1-yl)-[1,3]oxathiolan-2-ylmethoxy]-phenoxy-phosphorylamino}-propanoate] | 320 ± 80 | 96 | > 30000 | 89 | – |
| C=C1[C@H](CO[P@@](=O)(N[C@@H](C)C(=O)O[C@@H](C)C(=O)OC(C)C)Oc2ccccc2)[C@@H](O)C[C@@H]1n1cnc2c(=O)[nH]c(N)nc21 [1.2(50), (S)-1-isopropoxycarbonyl-ethyl (S)-2-{(S)-[(1R,3S,5S)-3-(2-amino-6-oxo-1,6-dihydro-purin-9-yl)-5-hydroxy-2-methylene-cyclopentylmethoxy]-phenoxy-phosphorylamino}-propanoate] | 40 ± 30 | 100 | > 30000 | 95 | – |
| CC(C)OC(=O)[C@H](C)OC(=O)[C@H](C)N[P@](=O)(OC[C@@H]1O[C@H](n2cc(F)c(N)nc2=O)CS1)Oc1ccccc1 [1.2(93), (S)-1-isopropoxycarbonyl-ethyl (S)-2-{(S)-[(2R,5S)-5-(4-amino-5-fluoro-2-oxo-2H-pyrimidin-1-yl)-[1,3]oxathiolan-2-ylmethoxy]-phenoxy-phosphorylamino}-propanoate] | 40 ± 10 | 93 | > 30000 | 94 | – |
| C=CCOC(=O)[C@H](C)N[P@](=O)(OC[C@@H]1O[C@H](n2ccc(=O)[nH]c2=O)CS1)Oc1ccccc1 [1.2(94), allyl (S)-2-{(S)-[(2R,5S)-5-(2,4-dioxo-3,4-dihydro-2H-pyrimidin-1-yl)-[1,3]oxathiolan-2-ylmethoxy]-phenoxy-phosphorylamino}-propanoate] | 300 ± 90 | 99 | > 30000 | 101 | – |
| CC(C)(CO)C(=O)SCCOP(=O)(COC[C@H]1OC(n2cnc3c(=O)[nH]c(N)nc32)[C@](C)(O)[C@@H]1O)NCc1ccccc1 (stereo partly shown) [IDX-184] | – | – | – | – | EC50 (HCV replicon): 400 nM |
| COc1nc(N)nc2c1ncn2[C@@H]1O[C@H](COP(=O)(N[C@@H](C)C(=O)OC(C)C)Oc2ccccc2)[C@@H](O)[C@@]1(C)F (stereo partly shown) [PSI-353661] | – | – | – | – | EC90 (HCV replicon; replicon assay): 8 nM; increase in potency compared to the guanosine analogue (HCV replicon; versus β-D-2′-deoxy-2′-R-fluoro-2′-β-C-methylguanosine): > 1000 fold |
| CC(C)OC(=O)[C@H](C)OC(=O)[C@H](C)N[P@](=O)(OC[C@@H]1O[C@H](n2ccc(N)nc2=O)CS1)Oc1ccccc1 [1.2(92), (S)-1-isopropoxycarbonyl-ethyl (S)-2-{(S)-[(2R,5S)-5-(4-amino-2-oxo-2H-pyrimidin-1-yl)-[1,3]oxathiolan-2-ylmethoxy]-phenoxy-phosphorylamino}-propanoate] | 800 ± 610 | 86 | > 30000 | 103 | – |
